# Source: patent publication US11446223B2, “Anti-aging composition” (NEOPHARM CO., LTD., priority 2016, dated 2022)
# How the values were obtained:
# Assay type in all cases: cell-based
# human fibroblasts = experiment: Type-1 collagen synthesis in human fibroblasts (PICP EIA kit); settings: 24 hours
# Method: N-(1,3-dihydroxy propan-2-yl)-2-ethylhexanamide was added to a culture medium of human fibroblasts (DMEM medium, 10% fetal bovine serum, 1% antibiotics) to confirm the effect of accelerating type-1 collagen synthesis in a cell level. The measurement of the synthesized collagen was qualified using a procollagen type I C-peptide enzyme immunoassay kit (PICP EIA kit).
# The human fibroblast culture medium was used to aliquot the human-derived fibroblasts (human fibroblasts) into 6 wells at 2×10^5 cell/well. After cell adhesion was confirmed, the culture medium was treated with 2 ml of N-(1,3-dihydroxy propan-2-yl)-2-ethylhexanamide as an effective component (anti-aging composition) per each well, at a concentration of 20 uM. After the culture medium was cultured in an incubator under a condition of 37° C. and 5% CO2 for 24 hours, type-1 collagen which is related to a wrinkle forming factor was measured in a cell extract. […]
# The effect of accelerating type-1 collagen synthesis was confirmed in the same manner as in Example 1, except that the effective component was not used (a negative control). In addition, type-1 collagen synthesis ability relative to the negative control was calculated as a ratio, and illustrated as a rate of increase (see Table 1 and FIG. 1).
# [1] = test system: Artificial skin (EpiDermFT); experiment: Collagen synthesis in artificial skin, Masson's Trichrome staining; settings: 100 μl at 1% on artificial skin surface, 24 hours, versus PBS (Comparative Example 2)
# Method: Artificial skin (EpiDermFT™ from MatTek, Ashland, USA) was purchased, and stabilized in an exclusive medium (EFT-400) for 18 hours. On the surface of the artificial skin, 100 μl of N-(1,3-dihydroxy propan-2-yl)-2-ethylhexanamide as an effective component (anti-aging composition) at a concentration of 1% was applied. After 24 hours, the artificial skin tissue was immobilized with 10% formaldehyde, embedded with paraffin, and sliced at 5 μm to obtain a sliced tissue which was used for confirming the effect of accelerating collagen synthesis (see FIG. 2).
# The artificial skin was stabilized in the same manner as in Example 2, and coated with only 100 μl of PBS without an effective component. After 24 hours, the artificial skin tissue was immobilized with 10% formaldehyde, embedded with paraffin, and sliced at 5 μm to obtain a sliced tissue which was used for confirming the effect of accelerating collagen synthesis.
# [2] = test system: human-derived fibroblasts; experiment: Toxicity / cell proliferation in human-derived fibroblasts; settings: 20 uM
compound,measurement,setting,value
"CCCCC(CC)C(=O)NC(CO)CO (stereo not shown) [Example 1, N-(1,3-dihydroxypropan-2-yl)-2-ethylhexanamide]",Type-1 collagen concentration (20 uM),"human fibroblasts; 20 uM compound, cell extract, human fibroblasts",0.017
same,Rate of increase (%),"human fibroblasts; type-1 collagen relative to negative control (Comparative Example 1), 20 uM",242%
same,effect of accelerating collagen synthesis (Masson's Trichrome staining),[1],accelerated collagen synthesis much more
same,toxicity,[2],not toxic
